Measurements taken from PubChem BioAssay AID1549 (Sanford-Burnham Center for Chemical Genomics, 2009).
Calls of active or inactive are those of the source. No rule for the calls is given here.

Molecular target: Influenza A virus M2 proton channel (A/TW/4845/1999 H1N1)
Test: M2 proton channel binding, NMR based, influenza A virus H1N1 strain (AID 1549)
Conditions: NMR binding screen, M2 protein

| Structure (SMILES) | Kd |
| --- | --- |
| Cc1cc(C)n2nc(Cc3ccccc3)nc2n1 | > 4 mM (inactive) |
| O=c1ccn([C@@H]2O[C@H](COP(=O)(O)OP(=O)(O)OP(=O)(O)O)[C@@H](O)[C@H]2O)c(=O)[nH]1 | > 4 mM (inactive) |
| NC(=O)C12CC3CC(C1)C(=O)C(C3)C2 | > 4 mM (inactive) |
| Cc1nc2c(n1O)CCc1c-2no[n+]1[O-] | > 4 mM (inactive) |
| Cc1ccccc1C(=O)Nn1cnnc1 | > 4 mM (inactive) |
| COCC(=O)Nc1ccc(F)cc1F | > 4 mM (inactive) |
| CCOC(=O)c1ccc(Oc2ccc(C)nn2)cc1 | > 4 mM (inactive) |
| Nc1ncnc(NCc2cccnc2)c1[N+](=O)[O-] | > 4 mM (inactive) |
| CC(=O)Nc1ccc(-c2nc(C)c(C(C)=O)n2O)cc1 | > 4 mM (inactive) |
| Cc1nc2ccccc2c(=O)n1CCCO | > 4 mM (inactive) |
| Cc1ccc(-n2nnnc2SCC(N)=O)c(C)c1 | > 4 mM (inactive) |
| Cc1n[nH]c(C)c1N | > 4 mM (inactive) |
| Cc1cc(SCC(=O)Nc2nccs2)nc(=O)[nH]1 | > 4 mM (inactive) |
| COc1ccc2c(c1)OC[C@@H](Cc1ccc(OC)c(OC)c1)[C@H]2O | > 4 mM (inactive) |
| CC12CCC3C(CC3(C)C)C(C)(CCC1=O)O2 (stereo unspecified) | > 4 mM (inactive) |
| S=c1[nH]nc(-c2cccnc2)n1C1CCCCC1 | > 4 mM (inactive) |
| COc1ccc2c(c1)OC1(O)COc3cc(OC)c(OC)cc3C1=C2 (stereo unspecified) | > 4 mM (inactive) |
| Cc1ncc(C[n+]2csc3ccccc32)c(N)n1 | > 4 mM (inactive) |
| O=C(O)C1CCCN1Cc1c[nH]c2ccccc12 (stereo unspecified) | > 4 mM (inactive) |
| CC(=O)Nc1cccc(N2C(=O)CCC2=O)c1 | > 4 mM (inactive) |
| CS/C(N)=C\C(C)=O | > 4 mM (inactive) |
| Cn1c(=O)c2cn3ncccc3c2n(C)c1=O | > 4 mM (inactive) |
| Cc1nc2ccccc2c(=O)n1CCCn1ccnc1 | > 4 mM (inactive) |
| CC1=[N+]([O-])C2(N)CCc3c(no[n+]3[O-])C2(O)C1 (stereo unspecified) | > 4 mM (inactive) |

| Structure (SMILES) | Kd |
| --- | --- |
| O=C(c1ccco1)N1CCN(c2ccc(Cl)cc2)CC1 | > 4 mM (inactive) |
| CC(=O)Oc1c2c(c(CC=C(C)C)c3c1C(=O)C1=C[C@@H]4CC5C(C)(C)OC(C/C=C(\C)C(=O)O)(C4=O)[C@@]15O3)OC(C)(CCC=C(C)C)C=C2 (stereo partly specified) | > 4 mM (inactive) |
| CNC(=S)Nc1ccc2c(c1)OCO2 | > 4 mM (inactive) |
| Cc1nc2nc(COc3ccccc3)nn2c(C)c1Cl | > 4 mM (inactive) |
| COC(=O)c1ccc(Cl)c(NC(C)=O)c1 | > 4 mM (inactive) |
| O=C1CSC(=O)N1CN1CCCC1 | > 4 mM (inactive) |
| CC(NC(=O)c1ccco1)c1ccc2c(c1)OCCO2 (stereo unspecified) | > 4 mM (inactive) |
| NC(=O)CSc1nc2ccccc2c(=O)[nH]1 | > 4 mM (inactive) |
| c1ccc(-c2n[nH]c(-c3ccccn3)n2)nc1 | > 4 mM (inactive) |
| O=C(NCc1ccco1)c1ccc(Br)s1 | > 4 mM (inactive) |
| Cc1cc(NS(=O)(=O)Cc2ccccc2)no1 | > 4 mM (inactive) |
| COc1ccc(/C=C2\NC(=S)N(C)C2=O)cc1O | > 4 mM (inactive) |
| COC(=O)C1CCc2ccccc2N1 (stereo unspecified) | > 4 mM (inactive) |
| CNc1ccccc1C(=O)O | > 4 mM (inactive) |
| CCNS(=O)(=O)c1cc(Br)ccc1OC | > 4 mM (inactive) |
| C#CCCCCCCCCCCCC(=O)CC(O)COC(C)=O (stereo unspecified) | > 4 mM (inactive) |
| COC1C(O)C(O)C(O)[C@@H](O)C1O (stereo partly specified) | > 4 mM (inactive) |
| Cc1nnsc1C(=O)Nc1ccccn1 | > 4 mM (inactive) |
| O=c1cc(-c2ccccc2)oc2c(O)c(O)ccc12 | > 4 mM (inactive) |
| OCc1sccc1-n1cccc1 | > 4 mM (inactive) |
| Nc1ccc(S(=O)(=O)N2CCOCC2)cc1 | > 4 mM (inactive) |
| O=c1ccnc(Nc2ccccc2O)[nH]1 | > 4 mM (inactive) |
| Cc1ccc(C(=O)N2CC(=O)NC(=O)C2)cc1 | > 4 mM (inactive) |
| CC[C@H]1CN2CCc3cc(OC)c(OC)cc3C2C[C@@H]1CC1NCCc2cc(OC)c(OC)cc21 (stereo partly specified) | > 4 mM (inactive) |

| Structure (SMILES) | Kd |
| --- | --- |
| Cn1ccnc1C(O)c1ccccc1 (stereo unspecified) | > 4 mM (inactive) |
| Cc1ccc(C(O)c2nccn2C)o1 (stereo unspecified) | > 4 mM (inactive) |
| COc1ccc(C2CC(=O)c3ccc(OC)cc3O2)cc1 (stereo unspecified) | > 4 mM (inactive) |
| COc1ccc2cc1Oc1ccc(cc1)C[C@H]1c3c(cc4c(c3Oc3cc5c(cc3OC)CCN(C)[C@@H]5C2)OCO4)CCN1C | > 4 mM (inactive) |
| OCc1ccc2c(c1)OCO2 | > 4 mM (inactive) |
| CCN(CC)C(=O)c1n[nH]c(=O)c2ccccc12 | > 4 mM (inactive) |
| Clc1ccccc1OCc1nc(-c2ccncc2)no1 | > 4 mM (inactive) |
| C[C@@H]1CC[C@]2(C(=O)O)CC[C@]3(C)C(=CCC4[C@@]5(C)CC[C@H](O)C(C)(C)C5CC[C@]43C)C2[C@H]1C (stereo partly specified) | > 4 mM (inactive) |
| NCc1cccc(-n2cccc2)c1 | > 4 mM (inactive) |
| C=C1C2CC[C@@]3(C)[C@H](c4ccoc4)OC(=O)C[C@]13O[C@H]1CC(=O)C(C)(C)C(CC(=O)OC)C21C (stereo partly specified) | > 4 mM (inactive) |
| O=C(CO)N/N=C/c1ccccc1F | > 4 mM (inactive) |
| Nc1ccc(CN2CCOCC2)cc1 | > 4 mM (inactive) |
| CC(=O)NC(=S)Nc1ccc(C(C)=O)cc1 | > 4 mM (inactive) |
| Nc1ccc(S(=O)(=O)Nc2nccs2)cc1 | > 4 mM (inactive) |
| CN1CCN(Cc2cccnc2)CC1 | > 4 mM (inactive) |
| NC(c1ccccc1)c1ccccn1 (stereo unspecified) | > 4 mM (inactive) |
| O=C(O)c1cc(O)c2c(c1)C(=O)c1cc(O)cc(O)c1C2=O | > 4 mM (inactive) |
| CN1CC(=O)Nc2ccc([N+](=O)[O-])cc2C1=O | > 4 mM (inactive) |
| O=C1NC(=S)N/C1=C\c1cccc([N+](=O)[O-])c1 | > 4 mM (inactive) |
| S=c1[nH]c2cccnc2[nH]1 | > 4 mM (inactive) |
| Cc1cccc(OCc2nnc(N)s2)c1 | > 4 mM (inactive) |
| Cc1cc(C(=O)Nc2ccc3c(c2)OCCO3)c(C)o1 | > 4 mM (inactive) |
| C#CCCCCCCCCCCCC(O)CC(O)COC(C)=O (stereo unspecified) | > 4 mM (inactive) |
| COc1ccc([C@H]2COc3c(ccc(O)c3OC)C2)c(OC)c1O | > 4 mM (inactive) |

| Structure (SMILES) | Kd |
| --- | --- |
| c1n[nH]cc1-c1cn[nH]c1 | > 4 mM (inactive) |
| Cn1c(=O)cc(N2CCCCC2)[nH]c1=O | > 4 mM (inactive) |
| Oc1ccc(-c2n[nH]c(=S)n2Cc2ccco2)cc1 | > 4 mM (inactive) |
| CC(=O)c1ccc(CC2SC(N)=NC2=O)cc1 (stereo unspecified) | > 4 mM (inactive) |
| Cc1ccc(NC(=O)C2CCCNC2=O)nc1 (stereo unspecified) | > 4 mM (inactive) |
| Cc1c(C(=O)NC2=NCCS2)oc2ccccc12 | > 4 mM (inactive) |
| COc1ccc(C[C@H]2NC[C@H](O)[C@H]2OC(C)=O)cc1 | > 4 mM (inactive) |
| O=C(O)CCn1cncn1 | > 4 mM (inactive) |
| CCCCCC1C(=O)CCC1CC(=O)OC (stereo unspecified) | > 4 mM (inactive) |
| Cc1cc(C(=O)Nc2sc3c(c2C#N)CCC3)no1 | > 4 mM (inactive) |
| COc1cc([C@@H]2c3cc4c(cc3C(OC3O[C@@H]5COC(C)O[C@H]5[C@H](O)[C@H]3O)C3COC(=O)[C@@H]32)OCO4)cc(OC)c1O (stereo partly specified) | > 4 mM (inactive) |
| O=C(O)CNC(=O)c1ccccc1Cl | > 4 mM (inactive) |
| O=C(O)/C=C/C=C/c1ccccc1 | > 4 mM (inactive) |
| Nc1cncc(C(=O)O)c1 | > 4 mM (inactive) |
| COC(=O)C[C@H]1C2(C)CC34OC5(C)O[C@@]6([C@H](OC(C)=O)C(OC(C)=O)[C@]7(C)C(/C(=C(/O)C(C)C)C(=O)O[C@H]7c7ccoc7)[C@@]6(O5)[C@H](OC(C)=O)[C@@]3(O)C2OC(=O)C(C)C)[C@]14C (stereo partly specified) | > 4 mM (inactive) |
| OCc1cc(F)cc2c1OCOC2 | > 4 mM (inactive) |
| C[C@@H]1CC[C@@]23CCC4(C)[C@@](C=CC5[C@@]6(C)CCC(=O)C(C)(C)C6CC[C@]54C)(OC2=O)C3[C@H]1C (stereo partly specified) | > 4 mM (inactive) |
| O=C(O)c1cccc(O)c1O | > 4 mM (inactive) |
| COc1ccc(C(N)=O)cc1NC(C)=O | > 4 mM (inactive) |
| N=Cc1c(O)n(-c2cccc(Cl)c2)c(=O)[nH]c1=O | > 4 mM (inactive) |
| C=CCc1ccc(OC(=O)c2ccccc2)c(OC)c1 | > 4 mM (inactive) |
| CN1CCC(N(C)C2CCN(C)CC2)CC1 | > 4 mM (inactive) |
| COC(=O)c1cccc2cc[nH]c12 | > 4 mM (inactive) |
| COc1cccc(/C=N/N=C2/NC(=O)CS2)c1 | > 4 mM (inactive) |

| Structure (SMILES) | Kd |
| --- | --- |
| c1ccc2c(NC3=NCCS3)cccc2c1 | > 4 mM (inactive) |
| CN(C)C(=S)Nc1ccccc1N1CCOCC1 | > 4 mM (inactive) |
| CC[C@@H]1[C@@H](O)N2C3C[C@H]1C1C(O)[C@]4(C[C@@H]12)c1ccccc1N(C)[C@@H]34 (stereo partly specified) | > 4 mM (inactive) |
| O=C1CC(N2CCC(O)CC2)C(=O)N1c1ccc(F)cc1 (stereo unspecified) | > 4 mM (inactive) |
| CC(=O)Nc1ccc(S(=O)(=O)NCC2CCCO2)cc1 (stereo unspecified) | > 4 mM (inactive) |
| CN(C)C(=O)C12CCC(C)(C(=O)O1)C2(C)C (stereo unspecified) | > 4 mM (inactive) |
| O=C(NN1CCOCC1)c1cccs1 | > 4 mM (inactive) |
| O=C(O)C1=C[C@@H](O)[C@@H](O)[C@H](O)C1 | > 4 mM (inactive) |
| COC(=O)c1ccc2nc[nH]c2c1 | > 4 mM (inactive) |
| S=C(c1ccc2c(c1)OCO2)N1CCCC1 | > 4 mM (inactive) |
| C[C@]12CC(=O)C3C(CC[C@@H]4C[C@H](O)CC[C@]34C)C1CC[C@]2(O)C(=O)CO (stereo partly specified) | > 4 mM (inactive) |
| Cc1nn(-c2ccccc2)nc1CN | > 4 mM (inactive) |
| Nc1ccc(S(=O)(=O)N2CCCCC2)cc1 | > 4 mM (inactive) |
| CC(=O)c1ccc(NS(=O)(=O)c2cccc(C)c2)cc1 | > 4 mM (inactive) |
| COc1ccccc1C(=O)Nc1ccccn1 | > 4 mM (inactive) |
| Oc1ccccc1-c1nnco1 | > 4 mM (inactive) |
| CC(C)(C(N)=O)/[N+]([O-])=C\c1ccccc1 | > 4 mM (inactive) |
| Cn1cc(Cl)c(C(=O)Nc2ccncc2)n1 | > 4 mM (inactive) |
| O=C(NC1CCS(=O)(=O)C1)c1ccccc1 (stereo unspecified) | > 4 mM (inactive) |
| N#Cc1cnn(-c2ccc(Cl)cc2)c1N | > 4 mM (inactive) |
